# Data published in US20040082623A1, “Fmoc-l-leucine and derivatives thereof as ppar-gamma agonists” (priority 2003, published 2004).
# Target: T1, PPARγ2 (Homo sapiens, UniProt P37231)
# T1 sequence (P37231 1-505): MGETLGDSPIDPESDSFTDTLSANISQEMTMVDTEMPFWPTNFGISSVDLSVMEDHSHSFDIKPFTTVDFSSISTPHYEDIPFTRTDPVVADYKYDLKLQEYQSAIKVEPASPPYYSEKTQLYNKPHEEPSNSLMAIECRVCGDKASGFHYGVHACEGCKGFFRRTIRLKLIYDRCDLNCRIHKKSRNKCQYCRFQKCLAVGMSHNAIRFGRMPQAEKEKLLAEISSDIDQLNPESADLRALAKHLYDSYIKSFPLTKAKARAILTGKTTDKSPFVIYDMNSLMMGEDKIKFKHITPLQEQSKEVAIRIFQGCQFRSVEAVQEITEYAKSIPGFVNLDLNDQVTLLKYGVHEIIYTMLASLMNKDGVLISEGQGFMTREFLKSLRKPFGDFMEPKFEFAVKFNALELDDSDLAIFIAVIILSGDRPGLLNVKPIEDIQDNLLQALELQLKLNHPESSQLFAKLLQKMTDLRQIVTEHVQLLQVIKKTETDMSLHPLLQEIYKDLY
# Assay: Transient transfection, PPARγ2 reporter in CV1 cells
# Format: cell-based
# Parameters: a construct containing the entire cDNA of the human PPARγ2 (hPPARγ2); expressed in transfected cells; host or cells: Hep G2, RK13 or CV1 cells
# Conditions: simian renal cells CV1
# Procedure: RK13 cells (A and D), CV1 cells (B) or Hep G2 cells (C) were co-transfected with an expression vector for PPARγ2 (0.1 μg/well), pGL3-(Jwt)3TKLuc reported construct (0.5 μg/well), and pCMV-βGal (0.5 μg/well), as a control of transfection efficiency (0.5 μg/well). They were then grown during 24 h in the presence or absence of indicated compound. Activation is expressed as relative luciferase activity/β ? galactosidase activity. Each point was performed in triplicate, and each figure i ? representative of four independent experiments.
# The CV1, RK-13, and Hep G2 cell lines were obtained from ATCC (Rockville, Md.). Cells were maintained in Dulbecco's modified Eagle's minimal essential medium (DMEM) supplemented with 10% fetal calf serum (FCS), L-glutamine, and antibiotics. Transfections with chloramphenicol acetyltransferase (CAT) or luciferase (luc.) reporter constructs were carried out exactly as described previously (Schoonjans et al., 1996). The pGL3-(Jwt)3TKLuc and the pGL3-(Jwt)3TKCAT reporter constructs contain both three tandem repeats of the J site of the apolipoprotein A-II promoter cloned upstream of the herpes simplex virus thymidine kinase (TK) promoter and the luciferase or the CAT reporter genes respectively (Vu-Dac et al., 1995). […]
smiles,measurement,value
"CC(C)CC(NC(=O)OCC1c2ccccc2-c2ccccc21)C(=O)O [F-L-Leu, N-(9-fluroroenylmethyloxycarbonyl)-L-Leucine]",concentration required for optimal PPARγ activation,10^−5 M
